In patent US20100303754A1, “PROCESS FOR PREPARATION OF CYCLODEXTRIN OLIGOMERS OR POLYMERS, PRODUCTS OBTAINED AND USES” (BIOCYDEX, priority 2006, published 2010):
In brackets after ≈: the same amount, converted by molar mass.

Experiment: Solubilization tests of active ingredients by cyclodextrin dimers/trimer (soluble fraction analysed by CLHP)
Type: physicochemical
Conditions: thermodynamic from solid; Water alone, no cyclodextrin oligomer; stirred 24 hours; read-out: Amount of active ingredient solubilized in water
Method: Each solution is stirred for 24 hours, and then the soluble fractions are analyzed by CLHP after ultracentrifuging and filtration.

| solubility at 24 h [µg/mL] | Compound |
| --- | --- |
| 0.1 (≈ 0.2 µM) | CCC(=O)O[C@]1(C(=O)SCF)[C@H](C)C[C@H]2[C@@H]3C[C@H](F)C4=CC(=O)C=C[C@]4(C)[C@@]3(F)[C@@H](O)C[C@@]21C [Fluticasone Propionate] |
| 0.7 (≈ 0.82 µM) | CC(=O)O[C@H]1C(=O)[C@@]2(C)[C@H]([C@H](OC(=O)c3ccccc3)[C@]3(O)C[C@H](OC(=O)[C@H](O)[C@@H](NC(=O)c4ccccc4)c4ccccc4)C(C)=C1C3(C)C)[C@]1(OC(C)=O)CO[C@@H]1C[C@@H]2O [Taxol] |
| 4 (≈ 4.95 µM) | CC(=O)O[C@@]12CO[C@@H]1C[C@H](O)[C@@]1(C)C(=O)[C@H](O)C3=C(C)[C@@H](OC(=O)[C@H](O)[C@@H](NC(=O)OC(C)(C)C)c4ccccc4)C[C@@](O)([C@@H](OC(=O)c4ccccc4)[C@H]21)C3(C)C [Taxotere] |

More lines, now with the values behind:

| Compound | solubility at 24 h [µg/mL] |
| --- | --- |
| CC[C@H]1OC(=O)[C@H](C)[C@@H](O[C@H]2C[C@@](C)(OC)[C@@H](O)[C@H](C)O2)[C@H](C)[C@@H](O[C@@H]2O[C@H](C)C[C@H](N(C)C)[C@H]2O)[C@](C)(O)C[C@@H](C)/C(=N\OCOCCOC)[C@H](C)[C@@H](O)[C@]1(C)O [Roxithromycin] | 464 (≈ 555 µM) |
| C[C@@H](c1ncncc1F)[C@](O)(Cn1cncn1)c1ccc(F)cc1F [Voriconazole] | 685 (≈ 1960 µM) |
